Laboratory results as given in patent US8772480B2, “Inhibitors of PI3 kinase and/or mTOR” (priority 2009, dated 2014).
pIC50, pKi: −log10 of the molar value.

How the values were obtained:
[1] = target: ProfilerPro Kinase Selectivity Assay Kit kinases (Homo sapiens, UniProt O00141); format: biochemical; conditions: SGK1; 1 μM compound concentration
Protocol: (§1) Compounds were profiled using a LabChip® EZ Reader II platform and a ProfilerPro Kinase Selectivity Assay Kit (Caliper Lifesciences Inc., Hopkinton, Mass.). Compounds were tested at a concentration of 1 M in duplicate, with mean data reported as percent of control (POC).

[2] = target: ProfilerPro Kinase Selectivity Assay Kit kinases (Homo sapiens, UniProt O75116); format: biochemical; conditions: ROCK2; 1 μM compound concentration
Protocol: as §1

[3] = target: ProfilerPro Kinase Selectivity Assay Kit kinases (Homo sapiens, UniProt O96017); format: biochemical; conditions: CHK2; 1 μM compound concentration
Protocol: as §1

[4] = target: ProfilerPro Kinase Selectivity Assay Kit kinases (Homo sapiens, UniProt P06241); format: biochemical; conditions: FYN; 1 μM compound concentration
Protocol: as §1

[5] = target: ProfilerPro Kinase Selectivity Assay Kit kinases (Homo sapiens, UniProt P31751); format: biochemical; conditions: AKT2; 1 μM compound concentration
Protocol: as §1

[6] = target: ProfilerPro Kinase Selectivity Assay Kit kinases (Homo sapiens, UniProt P35968); format: biochemical; conditions: KDR; 1 μM compound concentration
Protocol: as §1

[7] = target: ProfilerPro Kinase Selectivity Assay Kit kinases (Homo sapiens, UniProt P43405); format: biochemical; conditions: SYK; 1 μM compound concentration
Protocol: as §1

[8] = target: ProfilerPro Kinase Selectivity Assay Kit kinases (Homo sapiens, UniProt P49137); format: biochemical; conditions: MAPKAPK2; 1 μM compound concentration
Protocol: as §1

[9] = target: ProfilerPro Kinase Selectivity Assay Kit kinases (Homo sapiens, UniProt Q05513); format: biochemical; conditions: PKC zeta; 1 μM compound concentration
Protocol: as §1

[10] = target: ProfilerPro Kinase Selectivity Assay Kit kinases (Homo sapiens, UniProt Q13177); format: biochemical; conditions: PAK2; 1 μM compound concentration
Protocol: as §1

[11] = target: ProfilerPro Kinase Selectivity Assay Kit kinases (Homo sapiens, UniProt Q9BZL6); format: biochemical; conditions: PKD2; 1 μM compound concentration
Protocol: as §1

[12] = target: ProfilerPro Kinase Selectivity Assay Kit kinases (Homo sapiens, UniProt Q9P1W9); format: biochemical; conditions: PIM2; 1 μM compound concentration
Protocol: as §1

[13] = test system: ProfilerPro Kinase Selectivity Assay Kit kinases; format: biochemical; conditions: 1 μM compound concentration
Protocol: as §1

PI3Kα = PI3Kα (Homo sapiens (Human), UniProt P42336); conditions: read-out: PI3Kα AlphaScreen ® Ki
[14] = target: human mutant B-raf (HuBraf V600E) (Homo sapiens (Human), UniProt P15056, V600E); conditions: at 10 μM compound concentration; POC = 100 − percent inhibition
Protocol: B-Raf Homogenous Time Resolved Fluorescence (HTRF) Kinase Assay
The final concentration of the kinase reaction buffer is 50 mM Tris-HCl pH 7.5, 10 mM MgCl2, 0.5% glucose, 0.5 mM DTT, 0.01% BSA. […] The detection reaction proceeds for one hour and is read on a RubyStar (BMG Labtech, Durham, N.C.) counter. IC50s for the test compounds are generated using Excel-XLfit software. For single concentration percent of control (POC;=100−percent inhibition) assays, compounds were assayed as above at a single test concentration of 10 M test compound.

[15] = test system: phosphorylation of Akt at Serine 473 in U87 MG cells; assay: cells; conditions: Homo sapiens, U-87 MG, 2 h, read-out: U87Cell IC50, pAkt (Ser 473), U87 MG cells, two hours with compound
Protocol: pAkt Aplhascreen (U87 Cell)
This assay was performed using U87 MG cells. […] The cells were maintained weekly using 0.05% Trypsin (Gibco) and replated in 150 mm TC—Treated Culture Dishes (Corning, Corning, N.Y.).
The first day of the assay, the adherent cells were trypsinized, media was added to the loose cells and cells were mixed to a homogenous mixture. 0.5 ml of the homogenous mixture was counted on the Beckman Coulter® Vi-CELL™ XR (Fullerton, Calif.). 50 frames of cells were counted and the number of viable cells was determined. The cells were then diluted to 0.25 million cells per ml, and centrifuged at 200 rcf for 5 minutes. The media was removed and the cells were reconstituted in fresh media for plating. The cells were plated at 20 μl per well on the PerkinElmer® FlexDrop PLUS in Low Volume 384 Well White Tissue Culture Plates (Corning) with a final cell density of 5K cells per well. The plates were incubated overnight at 37° Celsius, 5% CO2.
After two hours, the media in the cell plates was aspirated using the BioTek® ELx405HT plate washer (Winooski, Vt.) removing the majority of media and compound without disturbing the adherent U87 cells. […] The plates were then incubated at room temperature on a shaker for ten minutes. […] The AlphaScreen® reaction was added to the cell lysate at 6 μl per well using the PerkinElmer® FlexDrop PLUS. The plates were placed in a humid environment to reduce edge effects and incubated overnight at room temperature with restricted air flow in the dark.

ProfilerPro Kinase Selectivity Assay Kit kinases (Homo sapiens, UniProt P35968), sequence (P35968 20-1356 limits assumed): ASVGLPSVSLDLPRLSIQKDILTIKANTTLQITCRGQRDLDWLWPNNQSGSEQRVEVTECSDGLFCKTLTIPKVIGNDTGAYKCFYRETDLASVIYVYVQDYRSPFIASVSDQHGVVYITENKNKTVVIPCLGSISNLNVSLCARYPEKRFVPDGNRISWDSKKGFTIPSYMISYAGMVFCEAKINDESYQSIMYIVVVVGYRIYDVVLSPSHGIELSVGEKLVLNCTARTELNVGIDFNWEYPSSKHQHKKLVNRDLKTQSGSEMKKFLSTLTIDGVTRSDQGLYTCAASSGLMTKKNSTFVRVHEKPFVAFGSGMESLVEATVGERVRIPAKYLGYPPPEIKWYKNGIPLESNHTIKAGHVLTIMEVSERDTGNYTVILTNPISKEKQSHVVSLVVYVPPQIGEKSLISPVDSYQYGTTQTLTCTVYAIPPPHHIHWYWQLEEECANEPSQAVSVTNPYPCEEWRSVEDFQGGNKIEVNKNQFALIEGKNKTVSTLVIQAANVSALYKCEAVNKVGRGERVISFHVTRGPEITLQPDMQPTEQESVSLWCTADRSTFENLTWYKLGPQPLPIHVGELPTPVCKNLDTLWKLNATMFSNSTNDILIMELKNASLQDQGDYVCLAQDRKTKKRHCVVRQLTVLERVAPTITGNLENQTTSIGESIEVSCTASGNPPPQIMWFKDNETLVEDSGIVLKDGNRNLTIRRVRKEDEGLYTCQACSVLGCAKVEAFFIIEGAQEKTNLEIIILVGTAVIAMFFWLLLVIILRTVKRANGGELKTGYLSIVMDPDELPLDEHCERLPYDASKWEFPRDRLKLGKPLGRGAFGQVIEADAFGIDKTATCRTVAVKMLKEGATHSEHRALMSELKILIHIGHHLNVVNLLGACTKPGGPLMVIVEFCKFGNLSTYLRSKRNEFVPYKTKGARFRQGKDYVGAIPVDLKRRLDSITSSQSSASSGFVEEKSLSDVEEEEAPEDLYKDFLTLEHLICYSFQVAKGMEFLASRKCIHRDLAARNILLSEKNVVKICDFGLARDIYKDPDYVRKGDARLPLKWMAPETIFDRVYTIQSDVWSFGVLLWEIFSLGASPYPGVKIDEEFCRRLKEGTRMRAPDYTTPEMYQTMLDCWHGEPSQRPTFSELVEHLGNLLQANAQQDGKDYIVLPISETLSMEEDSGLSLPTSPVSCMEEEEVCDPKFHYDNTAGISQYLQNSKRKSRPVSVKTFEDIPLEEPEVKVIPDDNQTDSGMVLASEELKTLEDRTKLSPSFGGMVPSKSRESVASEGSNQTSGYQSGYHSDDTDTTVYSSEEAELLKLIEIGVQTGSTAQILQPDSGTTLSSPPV
PI3Kα, sequence (P42336 whole entry): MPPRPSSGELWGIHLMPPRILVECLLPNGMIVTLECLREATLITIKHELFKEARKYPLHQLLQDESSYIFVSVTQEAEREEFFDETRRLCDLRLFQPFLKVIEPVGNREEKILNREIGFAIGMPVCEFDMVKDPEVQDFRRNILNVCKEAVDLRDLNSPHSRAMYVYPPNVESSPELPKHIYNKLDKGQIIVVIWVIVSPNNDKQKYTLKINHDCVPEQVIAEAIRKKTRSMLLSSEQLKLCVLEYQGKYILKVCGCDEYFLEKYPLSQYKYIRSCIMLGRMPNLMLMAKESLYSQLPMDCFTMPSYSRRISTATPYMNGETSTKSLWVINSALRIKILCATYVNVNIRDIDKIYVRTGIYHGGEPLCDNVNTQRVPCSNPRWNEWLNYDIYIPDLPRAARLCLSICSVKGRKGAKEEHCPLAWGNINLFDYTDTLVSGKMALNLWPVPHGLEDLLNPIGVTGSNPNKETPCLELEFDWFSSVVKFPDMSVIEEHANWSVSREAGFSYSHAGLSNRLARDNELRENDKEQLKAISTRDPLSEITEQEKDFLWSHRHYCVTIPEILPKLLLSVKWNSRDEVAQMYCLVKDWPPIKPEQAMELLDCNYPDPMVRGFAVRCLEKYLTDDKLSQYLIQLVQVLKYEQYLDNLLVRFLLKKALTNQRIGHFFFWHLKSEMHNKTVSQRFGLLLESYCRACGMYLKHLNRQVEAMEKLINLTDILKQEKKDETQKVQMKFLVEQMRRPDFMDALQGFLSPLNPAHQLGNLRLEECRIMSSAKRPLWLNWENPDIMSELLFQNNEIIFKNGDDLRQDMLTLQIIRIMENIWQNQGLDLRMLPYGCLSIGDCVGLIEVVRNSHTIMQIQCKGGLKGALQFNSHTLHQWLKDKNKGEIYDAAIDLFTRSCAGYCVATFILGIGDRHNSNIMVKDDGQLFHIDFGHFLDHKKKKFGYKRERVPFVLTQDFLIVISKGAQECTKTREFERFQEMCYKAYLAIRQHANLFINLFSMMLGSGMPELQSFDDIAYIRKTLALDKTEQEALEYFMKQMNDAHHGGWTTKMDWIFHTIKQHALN
PI3Kα, sequence (P27986 whole entry partner): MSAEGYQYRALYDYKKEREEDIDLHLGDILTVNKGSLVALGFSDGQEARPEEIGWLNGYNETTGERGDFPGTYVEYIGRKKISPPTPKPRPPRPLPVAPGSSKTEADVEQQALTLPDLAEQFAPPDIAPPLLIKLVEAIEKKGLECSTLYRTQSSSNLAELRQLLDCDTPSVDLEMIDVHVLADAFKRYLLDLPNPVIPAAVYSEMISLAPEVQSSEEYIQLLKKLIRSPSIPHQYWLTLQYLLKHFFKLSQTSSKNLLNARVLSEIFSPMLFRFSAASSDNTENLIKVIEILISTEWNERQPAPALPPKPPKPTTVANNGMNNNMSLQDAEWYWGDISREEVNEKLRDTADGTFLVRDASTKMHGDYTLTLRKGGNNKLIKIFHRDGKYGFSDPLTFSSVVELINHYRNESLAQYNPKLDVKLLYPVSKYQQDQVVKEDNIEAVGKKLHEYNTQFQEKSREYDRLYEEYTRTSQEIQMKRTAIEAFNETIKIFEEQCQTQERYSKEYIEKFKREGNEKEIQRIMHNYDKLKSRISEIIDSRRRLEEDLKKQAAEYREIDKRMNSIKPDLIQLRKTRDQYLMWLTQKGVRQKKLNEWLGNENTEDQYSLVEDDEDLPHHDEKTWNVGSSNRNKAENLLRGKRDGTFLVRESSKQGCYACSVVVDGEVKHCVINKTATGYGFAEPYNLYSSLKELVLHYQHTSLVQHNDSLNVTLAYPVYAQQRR
human mutant B-raf (HuBraf V600E), sequence (P15056 whole entry V600E): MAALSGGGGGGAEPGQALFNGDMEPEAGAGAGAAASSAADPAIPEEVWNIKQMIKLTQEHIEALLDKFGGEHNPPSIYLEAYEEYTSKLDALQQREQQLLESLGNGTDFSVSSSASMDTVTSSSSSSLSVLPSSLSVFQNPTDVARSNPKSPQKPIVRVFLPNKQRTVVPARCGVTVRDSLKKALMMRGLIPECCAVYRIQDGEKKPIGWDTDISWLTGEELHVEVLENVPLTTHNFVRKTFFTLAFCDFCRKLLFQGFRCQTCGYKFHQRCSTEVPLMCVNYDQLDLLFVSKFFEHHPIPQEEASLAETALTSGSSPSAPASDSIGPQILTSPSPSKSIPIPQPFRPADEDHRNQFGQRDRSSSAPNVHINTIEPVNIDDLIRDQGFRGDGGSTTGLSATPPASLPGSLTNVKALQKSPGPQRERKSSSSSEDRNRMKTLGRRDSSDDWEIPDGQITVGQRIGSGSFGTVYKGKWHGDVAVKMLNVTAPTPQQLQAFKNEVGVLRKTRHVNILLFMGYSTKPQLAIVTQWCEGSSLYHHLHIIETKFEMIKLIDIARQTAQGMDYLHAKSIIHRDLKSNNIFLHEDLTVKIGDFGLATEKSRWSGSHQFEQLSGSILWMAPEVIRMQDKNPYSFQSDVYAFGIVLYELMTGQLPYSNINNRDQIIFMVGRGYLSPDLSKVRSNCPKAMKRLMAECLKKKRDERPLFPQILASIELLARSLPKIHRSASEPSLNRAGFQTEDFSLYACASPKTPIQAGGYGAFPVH
ProfilerPro Kinase Selectivity Assay Kit kinases (Homo sapiens, UniProt Q13177), sequence (Q13177 2-524 limits assumed): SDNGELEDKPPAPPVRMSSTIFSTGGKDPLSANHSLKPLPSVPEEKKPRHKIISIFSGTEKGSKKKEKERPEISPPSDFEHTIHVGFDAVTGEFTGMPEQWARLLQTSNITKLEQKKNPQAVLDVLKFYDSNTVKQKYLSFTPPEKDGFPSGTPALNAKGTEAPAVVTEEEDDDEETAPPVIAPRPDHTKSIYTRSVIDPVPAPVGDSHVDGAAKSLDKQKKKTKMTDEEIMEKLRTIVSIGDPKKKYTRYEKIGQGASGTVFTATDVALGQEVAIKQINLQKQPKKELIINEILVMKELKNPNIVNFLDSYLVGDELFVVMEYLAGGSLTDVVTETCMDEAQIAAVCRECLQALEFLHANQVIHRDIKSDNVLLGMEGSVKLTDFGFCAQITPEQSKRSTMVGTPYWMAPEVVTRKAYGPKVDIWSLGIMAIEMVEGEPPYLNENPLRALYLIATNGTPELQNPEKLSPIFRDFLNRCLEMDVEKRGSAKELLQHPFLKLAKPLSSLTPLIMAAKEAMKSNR
ProfilerPro Kinase Selectivity Assay Kit kinases (Homo sapiens, UniProt P06241), sequence (P06241 2-537 limits assumed): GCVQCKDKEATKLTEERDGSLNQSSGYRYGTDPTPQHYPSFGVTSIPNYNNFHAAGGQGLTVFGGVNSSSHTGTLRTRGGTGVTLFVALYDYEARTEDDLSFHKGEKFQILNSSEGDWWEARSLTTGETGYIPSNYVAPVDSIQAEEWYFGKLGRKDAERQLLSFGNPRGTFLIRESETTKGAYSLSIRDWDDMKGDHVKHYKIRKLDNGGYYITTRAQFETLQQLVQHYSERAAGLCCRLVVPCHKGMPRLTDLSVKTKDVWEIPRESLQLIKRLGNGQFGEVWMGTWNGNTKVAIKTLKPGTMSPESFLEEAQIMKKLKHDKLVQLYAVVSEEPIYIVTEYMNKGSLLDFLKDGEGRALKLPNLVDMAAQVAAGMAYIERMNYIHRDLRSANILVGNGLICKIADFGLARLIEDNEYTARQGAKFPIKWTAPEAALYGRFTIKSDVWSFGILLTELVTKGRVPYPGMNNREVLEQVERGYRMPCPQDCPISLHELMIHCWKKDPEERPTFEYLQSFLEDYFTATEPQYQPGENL

Q: Which results are given for `c1cnc(Nc2cccc3[nH]ccc23)c(-c2ncnc3[nH]cnc23)c1` [Example 19, N-(3-(9H-Purin-6-yl)Pyridin-2-yl)-1H-Indol-4-Amine]?
A: POC (Percent of control) SGK1 [1]: 88 POC; POC (Percent of control) ROCK2 [2]: 104 POC; POC (Percent of control) CHK2 [3]: 18 POC; POC (Percent of control) FYN [4]: 33 POC; POC (Percent of control) AKT2 [5]: 110 POC; POC (Percent of control) KDR [6]: 29 POC; POC (Percent of control) SYK [7]: 15 POC; POC (Percent of control) MAPKAPK2 [8]: 90 POC; POC (Percent of control) PKC zeta [9]: 98 POC; POC (Percent of control) PAK2 [10]: 105 POC; POC (Percent of control) PKD2 [11]: 97 POC; POC (Percent of control) PIM2 [12]: 105 POC; POC (Percent of control) AMPK [13]: 57 POC; POC (Percent of control) CAMK2 [13]: 84 POC; POC (Percent of control) PKC beta2 [13]: 94 POC; POC (Percent of control) TAK1 [13]: 90 POC; pKi (PI3Kα): 5.25; Mutant B-raf HTRF Assay POC Mean n = 2 [14]: 7% of Control (POC); pIC50 [15]: 5.63

Q: For `Cc1nc(N)cc(-c2cccnc2Nc2cccc3[nH]ncc23)n1` [Example 27, N-(3-(6-Amino-2-Methylpyrimidin-4-yl)Pyridin-2-yl)-1H-Indazol-4-Amine], which “POC (Percent of control) SGK1” value [1] is on record?
A: 85 POC

Q: And the “POC (Percent of control) ROCK2” value [2]?
A: 95 POC

Q: And the “POC (Percent of control) CHK2” value [3]?
A: 97 POC

Q: And the “POC (Percent of control) FYN” value [4]?
A: 98 POC

Q: And the “POC (Percent of control) AKT2” value [5]?
A: 95 POC

Q: And the “POC (Percent of control) KDR” value [6]?
A: 81 POC

Q: What about the “POC (Percent of control) SYK” value [7] of the same compound?
A: 83 POC

Q: What about the “POC (Percent of control) MAPKAPK2” value [8] of the same compound?
A: 101 POC

Q: And the “POC (Percent of control) PKC zeta” value [9]?
A: 99 POC

Q: What about the “POC (Percent of control) PAK2” value [10] of the same compound?
A: 99 POC

Q: And the “POC (Percent of control) PKD2” value [11]?
A: 102 POC

Q: And the “POC (Percent of control) PIM2” value [12]?
A: 106 POC

Q: And the “POC (Percent of control) AMPK” value [13]?
A: 83 POC

Q: What about the “POC (Percent of control) CAMK2” value [13] of the same compound?
A: 116 POC

Q: What about the “POC (Percent of control) PKC beta2” value [13] of the same compound?
A: 166 POC

Q: What about the “POC (Percent of control) TAK1” value [13] of the same compound?
A: 102 POC

Q: And the pKi (PI3Kα)?
A: 6.89

Q: What about the “Mutant B-raf HTRF Assay POC Mean n = 2” value [14] of the same compound?
A: 110% of Control (POC)

Q: With `Cc1nc(N)nc(-c2cc(CN3CCN(S(C)(=O)=O)CC3)cnc2Nc2cccc(O)c2)n1` [Example 30, 3-(3-(4-Amino-6-Methyl-1,3,5-Triazin-2-yl)-5-((4-(Methyl Sulfonyl)Piperazin-1-yl)Methyl)Pyridin-2-Ylamino)Phenol] as the compound, how does the “POC (Percent of control) SGK1” value [1] read?
A: 93 POC

Q: And the “POC (Percent of control) ROCK2” value [2]?
A: 98 POC

Q: And the “POC (Percent of control) CHK2” value [3]?
A: 106 POC

Q: And the “POC (Percent of control) FYN” value [4]?
A: 97 POC

Q: And the “POC (Percent of control) AKT2” value [5]?
A: 105 POC

Q: And the “POC (Percent of control) KDR” value [6]?
A: 102 POC

Q: And the “POC (Percent of control) SYK” value [7]?
A: 106 POC

Q: What about the “POC (Percent of control) MAPKAPK2” value [8] of the same compound?
A: 103 POC

Q: And the “POC (Percent of control) PKC zeta” value [9]?
A: 110 POC

Q: What about the “POC (Percent of control) PAK2” value [10] of the same compound?
A: 105 POC

Q: And the “POC (Percent of control) PKD2” value [11]?
A: 98 POC

Q: What about the “POC (Percent of control) PIM2” value [12] of the same compound?
A: 99 POC

Q: And the “POC (Percent of control) AMPK” value [13]?
A: 91 POC

Q: What about the “POC (Percent of control) CAMK2” value [13] of the same compound?
A: 103 POC

Q: What about the “POC (Percent of control) PKC beta2” value [13] of the same compound?
A: 94 POC

Q: What about the “POC (Percent of control) TAK1” value [13] of the same compound?
A: 99 POC

Q: What about the pKi (PI3Kα) of the same compound?
A: 8.10

Q: What about the “Mutant B-raf HTRF Assay POC Mean n = 2” value [14] of the same compound?
A: 92% of Control (POC)

Q: What about the pIC50 [15] of the same compound?
A: 7.52

Q: How did the “POC (Percent of control) SGK1” value [1] turn out when `Cc1cnc(Nc2cccc3[nH]ccc23)c(-c2nc(C)nc(N)n2)c1` [Example 46, N-(3-(4-Amino-6-Methyl-1,3,5-Triazin-2-yl)-5-Methylpyridin-2-yl)-1H-Indol-4-Amine] was run?
A: 89 POC

Q: What about the “POC (Percent of control) ROCK2” value [2] of the same compound?
A: 94 POC

Q: And the “POC (Percent of control) CHK2” value [3]?
A: 101 POC

Q: And the “POC (Percent of control) FYN” value [4]?
A: 101 POC

Q: And the “POC (Percent of control) AKT2” value [5]?
A: 110 POC

Q: And the “POC (Percent of control) KDR” value [6]?
A: 90 POC

Q: What about the “POC (Percent of control) SYK” value [7] of the same compound?
A: 104 POC

Q: And the “POC (Percent of control) MAPKAPK2” value [8]?
A: 98 POC

Q: And the “POC (Percent of control) PKC zeta” value [9]?
A: 198 POC

Q: And the “POC (Percent of control) PAK2” value [10]?
A: 95 POC

Q: And the “POC (Percent of control) PKD2” value [11]?
A: 106 POC

Q: And the “POC (Percent of control) PIM2” value [12]?
A: 99 POC

Q: What about the “POC (Percent of control) AMPK” value [13] of the same compound?
A: 91 POC

Q: And the “POC (Percent of control) CAMK2” value [13]?
A: 105 POC

Q: What about the “POC (Percent of control) PKC beta2” value [13] of the same compound?
A: 96 POC

Q: And the “POC (Percent of control) TAK1” value [13]?
A: 98 POC

Q: What about the pKi (PI3Kα) of the same compound?
A: 6.89

Q: And the “Mutant B-raf HTRF Assay POC Mean n = 2” value [14]?
A: 68% of Control (POC)

Q: What about the pIC50 [15] of the same compound?
A: 7.10

Q: What does the source list for `Cc1cnc(Nc2cccc3[nH]ncc23)c(-c2nc(C)nc(N)n2)c1` [Example 47, N-(3-(4-Amino-6-Methyl-1,3,5-Triazin-2-yl)-5-Methylpyridine-2-yl)-1H-Indazol-4-Amine]?
A: POC (Percent of control) SGK1 [1]: 89 POC; POC (Percent of control) ROCK2 [2]: 93 POC; POC (Percent of control) CHK2 [3]: 99 POC; POC (Percent of control) FYN [4]: 87 POC; POC (Percent of control) AKT2 [5]: 74 POC; POC (Percent of control) KDR [6]: 86 POC; POC (Percent of control) SYK [7]: 95 POC; POC (Percent of control) MAPKAPK2 [8]: 101 POC; POC (Percent of control) PKC zeta [9]: 102 POC; POC (Percent of control) PAK2 [10]: 99 POC; POC (Percent of control) PKD2 [11]: 113 POC; POC (Percent of control) PIM2 [12]: 104 POC; POC (Percent of control) AMPK [13]: 87 POC; POC (Percent of control) CAMK2 [13]: 126 POC; POC (Percent of control) PKC beta2 [13]: 100 POC; POC (Percent of control) TAK1 [13]: 106 POC; pKi (PI3Kα): 7.44; Mutant B-raf HTRF Assay POC Mean n = 2 [14]: 91% of Control (POC); pIC50 [15]: 6.71

Q: Which “POC (Percent of control) SGK1” value [1] does the source give for `CCc1cnc(Nc2ccc(OC)nc2)c(-c2nc(C)nc3[nH]cnc23)c1` [Example 74, 5-ethyl-N-(6-methoxypyridin-3-yl)-3-(2-methyl-9H-purin-6-yl)pyridin-2-amine] here?
A: 108 POC

Q: And the “POC (Percent of control) ROCK2” value [2]?
A: 101 POC

Q: And the “POC (Percent of control) CHK2” value [3]?
A: 98 POC

Q: And the “POC (Percent of control) FYN” value [4]?
A: 104 POC

Q: And the “POC (Percent of control) AKT2” value [5]?
A: 96 POC

Q: What about the “POC (Percent of control) KDR” value [6] of the same compound?
A: 97 POC

Q: And the “POC (Percent of control) SYK” value [7]?
A: 97 POC

Q: And the “POC (Percent of control) MAPKAPK2” value [8]?
A: 100 POC

Q: What about the “POC (Percent of control) PKC zeta” value [9] of the same compound?
A: 94 POC

Q: What about the “POC (Percent of control) PAK2” value [10] of the same compound?
A: 94 POC

Q: What about the “POC (Percent of control) PKD2” value [11] of the same compound?
A: 99 POC

Q: And the “POC (Percent of control) PIM2” value [12]?
A: 92 POC

Q: What about the “POC (Percent of control) AMPK” value [13] of the same compound?
A: 100 POC

Q: What about the “POC (Percent of control) CAMK2” value [13] of the same compound?
A: 106 POC

Q: And the “POC (Percent of control) PKC beta2” value [13]?
A: 94 POC

Q: What about the “POC (Percent of control) TAK1” value [13] of the same compound?
A: 98 POC

Q: And the pKi (PI3Kα)?
A: 7.96

Q: What about the “Mutant B-raf HTRF Assay POC Mean n = 2” value [14] of the same compound?
A: 111% of Control (POC)

Q: What about the pIC50 [15] of the same compound?
A: 7.05
